# From US20250059499A1, “CELL-SURFACE ENGINEERING COMPOSITIONS AND METHODS FOR THE PREVENTION OF IMMUNE REJECTION” (THE UNIVERSITY OF BRITISH COLUMBIA, priority 2021, published 2025)
# LPG = linear polyglycerol, Mn 14,900 Da
# Experiments:
# Ea.hy926 cells [1] = assay: Enzyme-mediated glycocalyx removal from endothelial surface (loss of attached polymer); assay type: cell-based; conditions: 0.1 mM H2O2 and 1 nM epinephrine, 1 hour at 37° C.
# Method: Ea.hy926 endothelial cells were treated with 0.5 mM LPG-SS or LPG-Q (containing 10% BODIPY FL) for 30 min at 4° C. in UW solution fortified with 3 mM GSH, 5 mM CaCl2, 0.2 U/mL gtTGase. […] Cells were washed, trypsinized and immediately subjected to flow cytometry. Controls with no enzyme treatment were used to set gates for 100% labeled cell populations.
# [2] = system: TNF-α activated Ea.hy926 cells co-cultured with IL-2 activated PBMCs; assay: PBMC-mediated cytotoxicity (LDH assay)
# Method: EA.hy 926 monolayers were activated using TNF-α and PBMCs were activated using IL-2 as described in PBMC adhesion experiments. Following activation, PBMC was collected and resuspended in DMEM (Phenol free, 5% FBS, pen/strep). PBMCs were then added to activated EA.hy 926 monolayers (modified and unmodified) to a final concentration of 0.15×10^6 cells/mL and left to incubate at 37° C. and 5% CO2 for 18 hour. After treatment, the supernatant was collected and cell debris was removed through centrifugation. LDH content was measured using LDC cytotoxicity assay (Biovision Inc.™). Cytotoxicity was calculated using the equation below;
# where, LDHsample is the amount of LDH released from the sample, LDHPBMC is the amount of LDH released from PBMC samples not subjected to EA.hy 926 monolayers, LDHalive is the amount of LDH released from EA.hy 926 monolayers not subjected to PBMCs, and LDHdead is the amount of LDH released of EA.hy926 monolayers treated with RIPA buffer for 10 minutes at room temperature.
# Ea.hy926 cells [3] = assay: Polymer attachment to endothelial cell surface by flow cytometry (BODIPY FL-labelled polymer); assay type: cell-based
# Method: Ea.hy 926 cells at […] confluence were trypsinized and plated in a 96 well plate at 15,000 cells/well. Cells reached 100% confluence at day 3 and allowed to grow for a further 4 days at 37° C. and 5% CO2. Cells were washed twice with cold DPBS and incubated with UW solution freshly supplemented with 3 mM GSH, 5 mM CaCl2, 0.2 […] and 0.5 mM LPG-Q or 0.56 mM glycopolymers ([…]) unless otherwise noted. The solutions were mixed thoroughly and incubated at 4° C. for 30 minutes under static conditions. The cell supernatant was collected and the cells were washed three times with PBS and subjected to further analysis. The assessment of polymer attachment to endothelial cells are assessed by ammonia assay, flow cytometry and polymer mediated cell-surface camouflage of surface proteins. […] To quantify the extent of cell surface engineering, polymers were attached to endothelial surfaces according to the general cell surface engineering procedures outlined in previously using polymer in which 10% were labelled with BODIPY FLTM (ratio of non-labeled polymer: BODIPY labeled polymer=9:1). The cell monolayers were trypsinized and subjected to flow cytometry (CytoFLEXTM, Beckman CoulterTM) in which 10,000 events were acquired and the median fluorescent intensity (MFI) in the 488 channel was recorded.
# [4] = system: Ea.hy926 cells co-cultured with HLA-A2-reactive CAR T cells; assay type: cell-based; conditions: effector:target 2:1, 1:2 and 1:10, 18 hours
# Method: The experiment was performed similar to previously described PBMC/Ea.hy926 co-culture experiments by replacing the effector with CAR-T cells. Ea.hy926 cells were engineered with polymers in UW solution as outlined. Cryopreserved CAR T cells were thawed using standard protocol41 and were pelleted and resuspended in phenol-free DMEM (5% FBS, pen/strep) at an effector (CAR-T cell) to target (Ea.hy926) ratios of 2:1, 1:2 and 1:10 (Vf=100 μL). After 18 hours, supernatants were removed from the wells and PBMCs were removed through centrifugation (300 g×5 minutes) and measured for LDH content to probe cell lysis using an LDH cytotoxicity assay (Biovision Inc.™). CAR-T cell-mediated cytotoxicity was calculated according to Eq. 2 replacing PBMC LDH release with CAR-T cell LDH release. LDH released by Ea.hy926 following 18 hour culture period that have not undergone polymer attachment and cultured in the absence of CAR-T cell is the 100% alive control and LDH released by Ea.hy926 following treatment with RIPA buffer for 10 minutes at ambient temperature is 100% dead control.
substance,measurement,setting,value
linear polyglycerol glutamine (Ac-GQQQLGGGGG-{LPG}; not fully specified; also: part of the polymer BODIPY FL-labelled in some experiments) [LPG-Q],polymer retained / glycocalyx specificity after enzyme-mediated glycocalyx removal,Ea.hy926 cells [1],higher specificity for glycocalyx modification
same,immunosuppression on the cell surface compared with polymer in solution,[2],more potent immunosuppression than LPG-Q-Sia3Lac in solution
same,"PBMC-mediated endothelial cell death, in words",[2]; polymer ligated to cell surface,suppress PBMC-mediated endothelial cell death
same,LPG-Q attachment versus concentration,"Ea.hy926 cells [3]; 0.2 mM-3.0 mM, 4° C., 30 minutes, UW solution with gtTGase",dose-dependent increase
same,"levels of cell-surface labelling, enzyme-mediated approach compared to succinimidyl succinate amine coupling","Ea.hy926 cells [3]; 30 min at 4° C. in UW solution with gtTGase, versus LPG-SS",~4.4 fold
same,CAR-T cell induced endothelial cell cytotoxicity,[4],reduced endothelial cytotoxicity
